Test system: lung mRNA expression levels
Assay: Bleomycin-induced lung injury: quantitative RT-PCR of lung
Format: in vivo
Conditions: bleomycin mice lung, normalized to GAPDH, vehicle 1.00, heading says 50 mg/kg q.d.
Procedure: Bleomycin-Induced Lung Injury. Lung inflammation is induced in female mice by a single intratracheal administration of bleomycin. Twenty mice are divided into two groups. […] It is to be understood herein that 100 mg/kg in mice is generally considered to be equivalent to a 450-500 mg, such as 480 mg, dose in humans. Animals are sacrificed on Day 7.
Pathogen-free 7 weeks old female C57BL/6J mice are obtained from CLEA Japan (Tokyo, Japan) and allowed to acclimate at least 6 days. On day 0, twenty mice are induced to develop pulmonary fibrosis by a single intratracheal administration of bleomycin sulphate (BLM, Nippon Kayaku, Japan) in 0.9% saline in a volume of 50 μL per animal using a Microsprayer® (Penn-Century, USA). Individual body weight is measured daily during the experiment period. Survival, clinical signs and behavior of mice is monitored daily.
Solithromycin Reduces Inflammation In Mice Caused By Bleomycin-Induced Lung Injury. Pulmonary fibrosis is a problem in the management of patients who have received chemotherapy for malignancies particularly with regimens that contain bleomycin (BLM), methotrexate, cyclophosphamide, and many new agents. These patients are susceptible to pulmonary infections as well as to inflammation from pulmonary injury. […] The effects of solithromycin on the ability to prevent lung inflammation and fibrosis is described in a bleomycin induced-lung inflammation and fibrosis model. Group 1 (BLM-Vehicle): Ten BLM-induced pulmonary fibrosis model mice are orally administered vehicle (Carboxymethyl cellulose) at a volume of 10 mL/kg once daily from day −2 (two days before BLM administration) to day 6. […]
Quantitative RT-PCR. Total RNA was extracted from lung samples using RNAiso (Takara Bio, Japan). One μg of RNA was reverse-transcribed using a reaction mixture containing 4.4 mM MgCl2 (Roche, Switzerland), 40 U RNase inhibitor (Toyobo, Japan), 0.5 mM dNTP (Promega, USA), 6.28 μM random hexamer (Promega), 5× first strand buffer (Promega), 10 mM dithiothreitol (Invitrogen) and 200 U MMLV-RT (Invitrogen) in a final volume of 20 μL. The reaction was carried out for 1 hour at 37° C., followed by 5 minutes at 99° C. Real-time PCR was performed using real-time PCR DICE and SYBR premix Taq (Takara Bio). To calculate the relative mRNA expression level, the expression of each gene was normalized to that of reference gene GAPDH.
Analyses of BALF (bronchoalveolar lavage fluid). The cells in BALF are counted with a hemocytometer, and cell differentials are determined in cytospin preparations stained with Diff-Quik (Sysmex, Japan) MMP-9 in the supernatants from BALF are quantified by an enzyme-linked immunosorbent assay (ELISA; Cat# MMPT90, R&D Systems, USA). Histopathological assays for lung sections are performed according to standard methods. […]

## CC[C@H]1OC(=O)[C@@](C)(F)C(=O)[C@H](C)[C@@H](O[C@@H]2O[C@H](C)C[C@H](N(C)C)[C@H]2O)[C@](C)(OC)C[C@@H](C)C(=O)[C@H](C)[C@H]2N(CCCCn3cc(-c4cccc(N)c4)nn3)C(=O)O[C@]12C [solithromycin]
  Relative MCP-1 mRNA expression: 0.38 ± 0.32
  Relative MMP-9 mRNA expression: 0.42 ± 0.45
Listed as SOLI
  Relative TNF-α mRNA expression: 2.45 ± 2.10
Listed as Solithromycin
  Relative TNF-α mRNA expression: up-regulated

From US20170165286A1, “COMPOSITIONS AND METHODS FOR TREATING DIABETES AND LIVER DISEASES” (Cempra Pharmaceuticals, Inc., priority 2014, published 2017)
